Source: patent publication EP1976513B1 (priority 2006, dated 2007)
Where two headings read alike, the source gives them in different places.

Columns and labels:
[1] = molecular target: T1, 5-HT Transporter (SERT) Sites in Mouse Brain (Mus musculus, UniProt Q60857); assay: Ex vivo [3H] citalopram binding after oral dosing; parameters: species or system C57BL/6 mice; details: for % Transporter Occupancy, SERT: 60 minutes after treatment, vs vehicle; for Mean Specific Binding (dpm) ± S.E.M., SERT: mice sacrificed 60 minutes after treatment, cortex
T1 construct: Whole brains were removed and cortex and striata dissected out; from tissue; host or cells: C57BL/6 mouse frontal cortex homogenate

serotonin transporter = molecular target: T2, serotonin transporter (Rattus norvegicus, UniProt P31652); assay: biochemical; details: rat synaptosomes, serotonin transporter (SERT)
T2 construct: synaptosomes isolated in a 0.32M sucrose buffer from a male Wistar rat cortex; from tissue; host or cells: male Wistar rat cortex synaptosomes

[2] = molecular target: T3, DA Transporter (DAT) Sites in Mouse Brain (Mus musculus, UniProt Q61327); assay: Ex vivo [3H] WIN 35428 binding after oral dosing; parameters: species or system C57BL/6 mice; details: for % Transporter Occupancy, DAT: 60 minutes after treatment, vs vehicle; for Mean Specific Binding (dpm) ± S.E.M., DAT: mice sacrificed 60 minutes after treatment, striatum
T3 construct: Striatum was used to determine occupancy of DA transporter sites; from tissue; host or cells: C57BL/6 mouse striatum homogenate

dopamine transporter = molecular target: T4, dopamine transporter (Rattus norvegicus, UniProt P23977); assay: biochemical; details: rat synaptosomes, dopamine transporter (DAT); read-out: Rat IC50 (nM) rDAT
T4 construct: synaptosomes isolated in a 0.32 M sucrose buffer from a male Wistar rat striatum; from tissue; host or cells: male Wistar rat striatum synaptosomes

[3] = molecular target: T5, human dopamine reuptake transporter (Homo sapiens, UniProt Q01959); assay: cell-based; details: recombinant human dopamine transporter (DAT); read-out: Human IC50 (nM) hDAT
T5 construct: expressed in transfected cells; host or cells: CHO-K1 or HEK293

[4] = molecular target: human norepinephrine reuptake transporter (Homo sapiens, UniProt P23975); assay: cell-based; details: recombinant human norepinephrine transporter (NET); read-out: Human IC50 (nM) hNET
[5] = molecular target: human serotonin reuptake transporter (Homo sapiens, UniProt P31645); assay: cell-based; details: Human IC50 (nM) hSERT, recombinant human serotonin transporter (SERT)
human serotonin reuptake transporter, sequence (P31645 whole entry): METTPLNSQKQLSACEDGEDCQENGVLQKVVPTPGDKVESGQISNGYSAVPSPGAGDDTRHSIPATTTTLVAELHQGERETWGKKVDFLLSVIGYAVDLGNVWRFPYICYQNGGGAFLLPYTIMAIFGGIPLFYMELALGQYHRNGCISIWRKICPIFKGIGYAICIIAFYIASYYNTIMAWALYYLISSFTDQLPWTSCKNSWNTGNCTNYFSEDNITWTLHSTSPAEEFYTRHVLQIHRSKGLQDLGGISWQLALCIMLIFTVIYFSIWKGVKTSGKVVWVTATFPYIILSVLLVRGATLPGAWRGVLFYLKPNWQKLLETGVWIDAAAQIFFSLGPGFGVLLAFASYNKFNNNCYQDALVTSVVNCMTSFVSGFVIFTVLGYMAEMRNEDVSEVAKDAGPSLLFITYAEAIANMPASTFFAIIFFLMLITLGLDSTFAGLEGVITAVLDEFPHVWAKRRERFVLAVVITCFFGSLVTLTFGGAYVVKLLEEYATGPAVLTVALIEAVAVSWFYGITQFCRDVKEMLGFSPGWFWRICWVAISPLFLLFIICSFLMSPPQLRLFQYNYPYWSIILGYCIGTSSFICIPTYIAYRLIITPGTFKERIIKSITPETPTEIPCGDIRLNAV

T2 sequence (P31652 whole entry): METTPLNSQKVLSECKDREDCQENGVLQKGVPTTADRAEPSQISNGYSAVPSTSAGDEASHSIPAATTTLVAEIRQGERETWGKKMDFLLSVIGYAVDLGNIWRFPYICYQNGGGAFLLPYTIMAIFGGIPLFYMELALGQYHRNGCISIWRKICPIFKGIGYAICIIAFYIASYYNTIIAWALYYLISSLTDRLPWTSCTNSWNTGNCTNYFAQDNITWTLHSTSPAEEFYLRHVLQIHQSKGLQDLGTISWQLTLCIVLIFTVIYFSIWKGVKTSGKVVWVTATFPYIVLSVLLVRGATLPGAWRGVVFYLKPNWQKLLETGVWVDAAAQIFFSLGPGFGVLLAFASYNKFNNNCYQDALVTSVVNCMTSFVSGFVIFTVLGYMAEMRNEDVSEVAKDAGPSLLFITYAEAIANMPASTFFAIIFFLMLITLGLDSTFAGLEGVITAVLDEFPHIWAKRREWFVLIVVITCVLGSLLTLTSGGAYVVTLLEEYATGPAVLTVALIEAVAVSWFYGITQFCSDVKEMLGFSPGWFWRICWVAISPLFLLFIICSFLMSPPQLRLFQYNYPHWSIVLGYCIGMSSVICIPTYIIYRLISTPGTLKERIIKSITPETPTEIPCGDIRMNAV
T3 sequence (Q61327 whole entry): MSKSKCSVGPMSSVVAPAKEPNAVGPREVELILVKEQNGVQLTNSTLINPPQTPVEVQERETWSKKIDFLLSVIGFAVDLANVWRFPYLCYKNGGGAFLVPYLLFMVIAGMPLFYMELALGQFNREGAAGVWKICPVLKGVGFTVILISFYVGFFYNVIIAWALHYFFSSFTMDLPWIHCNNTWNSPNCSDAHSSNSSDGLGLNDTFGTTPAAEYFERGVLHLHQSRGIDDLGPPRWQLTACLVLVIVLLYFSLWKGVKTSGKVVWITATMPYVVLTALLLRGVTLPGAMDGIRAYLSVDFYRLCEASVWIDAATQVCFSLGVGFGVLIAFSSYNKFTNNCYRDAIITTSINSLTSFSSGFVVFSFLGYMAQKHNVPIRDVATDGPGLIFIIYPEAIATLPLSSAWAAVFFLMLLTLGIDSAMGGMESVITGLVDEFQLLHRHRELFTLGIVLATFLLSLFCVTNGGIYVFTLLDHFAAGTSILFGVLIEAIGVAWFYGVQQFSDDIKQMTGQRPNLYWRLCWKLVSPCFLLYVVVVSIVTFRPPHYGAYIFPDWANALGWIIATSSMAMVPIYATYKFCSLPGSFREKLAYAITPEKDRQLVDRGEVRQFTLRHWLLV
T1 sequence (Q60857 whole entry): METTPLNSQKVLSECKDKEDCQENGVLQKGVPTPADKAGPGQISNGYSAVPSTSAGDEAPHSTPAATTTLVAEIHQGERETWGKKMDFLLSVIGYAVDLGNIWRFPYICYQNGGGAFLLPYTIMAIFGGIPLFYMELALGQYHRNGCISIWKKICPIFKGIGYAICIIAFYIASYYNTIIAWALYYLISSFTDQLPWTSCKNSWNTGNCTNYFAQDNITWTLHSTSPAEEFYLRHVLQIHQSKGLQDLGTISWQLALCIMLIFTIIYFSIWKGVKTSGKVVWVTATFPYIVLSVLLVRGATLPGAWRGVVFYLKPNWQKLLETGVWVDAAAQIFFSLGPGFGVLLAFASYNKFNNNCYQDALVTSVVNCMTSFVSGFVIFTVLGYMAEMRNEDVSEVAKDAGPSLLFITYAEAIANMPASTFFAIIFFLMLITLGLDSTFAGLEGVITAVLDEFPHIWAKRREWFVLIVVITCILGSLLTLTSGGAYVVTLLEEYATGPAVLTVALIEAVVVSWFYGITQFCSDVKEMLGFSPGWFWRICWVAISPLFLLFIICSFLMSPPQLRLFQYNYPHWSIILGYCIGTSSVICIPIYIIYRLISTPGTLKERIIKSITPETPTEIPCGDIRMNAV
T4 sequence (P23977 whole entry): as the sequence (Q61327 whole entry) above, with P21S, V57A, S194A, R600H, V619L counted along it
human norepinephrine reuptake transporter, sequence (P23975 whole entry): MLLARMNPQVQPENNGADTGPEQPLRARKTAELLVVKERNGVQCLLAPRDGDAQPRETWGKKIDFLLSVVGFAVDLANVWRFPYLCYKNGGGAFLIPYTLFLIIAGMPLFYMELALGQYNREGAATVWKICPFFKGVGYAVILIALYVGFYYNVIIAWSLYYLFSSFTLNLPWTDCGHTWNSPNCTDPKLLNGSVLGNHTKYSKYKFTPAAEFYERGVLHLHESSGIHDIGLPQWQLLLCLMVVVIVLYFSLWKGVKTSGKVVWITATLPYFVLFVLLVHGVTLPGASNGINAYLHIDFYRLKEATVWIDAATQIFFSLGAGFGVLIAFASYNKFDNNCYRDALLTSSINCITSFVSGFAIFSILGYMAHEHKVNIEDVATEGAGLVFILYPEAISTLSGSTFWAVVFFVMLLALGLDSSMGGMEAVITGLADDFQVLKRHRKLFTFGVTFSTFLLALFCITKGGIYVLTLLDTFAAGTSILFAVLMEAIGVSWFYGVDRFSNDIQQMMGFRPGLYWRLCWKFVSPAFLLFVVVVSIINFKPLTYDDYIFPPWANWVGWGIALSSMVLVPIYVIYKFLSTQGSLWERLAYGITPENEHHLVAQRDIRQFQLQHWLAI
T5 sequence (Q01959 whole entry): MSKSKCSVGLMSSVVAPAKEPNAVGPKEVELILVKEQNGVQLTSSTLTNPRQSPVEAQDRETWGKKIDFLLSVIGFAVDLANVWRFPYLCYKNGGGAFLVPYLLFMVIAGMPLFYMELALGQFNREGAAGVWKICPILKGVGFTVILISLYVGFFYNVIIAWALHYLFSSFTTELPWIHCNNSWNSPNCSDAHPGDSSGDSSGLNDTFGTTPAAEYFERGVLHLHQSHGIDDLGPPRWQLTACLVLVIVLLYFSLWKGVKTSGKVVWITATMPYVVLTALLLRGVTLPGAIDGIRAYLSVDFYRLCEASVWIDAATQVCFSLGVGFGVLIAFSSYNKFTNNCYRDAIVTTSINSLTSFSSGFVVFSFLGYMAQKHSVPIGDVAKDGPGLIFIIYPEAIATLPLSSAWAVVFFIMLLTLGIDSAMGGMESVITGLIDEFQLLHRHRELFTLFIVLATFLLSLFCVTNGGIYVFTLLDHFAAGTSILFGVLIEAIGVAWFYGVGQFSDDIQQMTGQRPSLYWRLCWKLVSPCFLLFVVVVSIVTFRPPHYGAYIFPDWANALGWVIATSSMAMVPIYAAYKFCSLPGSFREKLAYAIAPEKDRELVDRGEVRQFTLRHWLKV

CNC(C)C1(c2ccc3ccccc3c2)CCCCC1 (single isomer, unassigned) [58 E1, N-methyl-1-(1-(naphthalen-2-yl)cyclohexyl)ethanamine]
% Transporter Occupancy, SERT ([1]; 1 mg/kg): 5%
Mean Specific Binding (dpm) ± S.E.M., SERT ([1]; 1 mg/kg): 3245 ± 107 dpm
% Transporter Occupancy, SERT ([1]; 3 mg/kg): 11%
Mean Specific Binding (dpm) ± S.E.M., SERT ([1]; 3 mg/kg): 3021 ± 182 dpm
% Transporter Occupancy, SERT ([1]; 10 mg/kg): 47%
Mean Specific Binding (dpm) ± S.E.M., SERT ([1]; 10 mg/kg): 1799 ± 115 dpm
% Transporter Occupancy, SERT ([1]; 30 mg/kg): 86%
Mean Specific Binding (dpm) ± S.E.M., SERT ([1]; 30 mg/kg): 469 ±43 dpm
IC50 (serotonin transporter; Rat IC50 (nM) rSERT): 9.5 nM
% Transporter Occupancy, DAT ([2]; 1 mg/kg): 7%
Mean Specific Binding (dpm) ± S.E.M., DAT ([2]; 1 mg/kg): 15732 ± 1360 dpm
% Transporter Occupancy, DAT ([2]; 3 mg/kg): 11%
Mean Specific Binding (dpm) ± S.E.M., DAT ([2]; 3 mg/kg): 14938 ± 2613 dpm
% Transporter Occupancy, DAT ([2]; 10 mg/kg): -2%
Mean Specific Binding (dpm) ± S.E.M., DAT ([2]; 10 mg/kg): 17215 ± 2151 dpm
% Transporter Occupancy, DAT ([2]; 30 mg/kg): 24%
Mean Specific Binding (dpm) ± S.E.M., DAT ([2]; 30 mg/kg): 12876 ± 2152 dpm

CNC(C)C1(c2ccc3ccccc3c2)CCCCC1 (single isomer, unassigned) [58 E2, N-methyl-1-(1-(naphthalen-2-yl)cyclohexyl)ethanamine]
IC50 (serotonin transporter; Rat IC50 (nM) rSERT): 100 nM

NCC1(c2cccc3ccccc23)CCCCC1 [Compound 12, (1-(naphthalen-1-yl)cyclohexyl)methanamine]
IC50 (dopamine transporter): 1900 nM
IC50 (serotonin transporter; read-out: Rat IC50 (nM) rSERT): 1100 nM

NCC1(c2ccc(OC(F)(F)F)cc2)CCCCC1 [Compound 15, (1-(4-(trifluoromethoxy)phenyl)cyclohexyl)methanamine]
IC50 [3]: > 10000 nM
IC50 [4]: > 10000 nM
IC50 [5]: 1400 nM
